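Compound exposure: 48 hours, 5 concentrations, 96-well plates. TGI: total growth inhibition.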
Experiments:
Test in all cases: NCI tumour cell line growth inhibition, 48 h
A498 renal = system: A498 renal
A549 NSCLC = system: A549 NSCLC
ACHN renal = system: ACHN renal
BT-549 breast = system: BT-549 breast
CCRF-CEM leukemia = system: CCRF-CEM leukemia
COLO 205 colon = system: COLO 205 colon
DU-145 prostate = system: DU-145 prostate
EKVX NSCLC = system: EKVX NSCLC
HCC-2998 colon = system: HCC-2998 colon
HCT-116 colon = system: HCT-116 colon
HCT-15 colon = system: HCT-15 colon
HL-60(TB) leukemia = system: HL-60(TB) leukemia
HOP-62 NSCLC = system: HOP-62 NSCLC
HOP-92 NSCLC = system: HOP-92 NSCLC
HS 578T breast = system: HS 578T breast
HT29 colon = system: HT29 colon
IGROV1 ovarian = system: IGROV1 ovarian
K-562 leukemia = system: K-562 leukemia
KM12 colon = system: KM12 colon
LOX IMVI melanoma = system: LOX IMVI melanoma
M14 melanoma = system: M14 melanoma
MALME-3M melanoma = system: MALME-3M melanoma
MCF7 breast = system: MCF7 breast
MDA-MB-231 breast = system: MDA-MB-231 breast
MDA-MB-435 = system: MDA-MB-435
MDA-N = system: MDA-N
MOLT-4 leukemia = system: MOLT-4 leukemia
NCI-H23 lung = system: NCI-H23 lung
NCI-H460 lung = system: NCI-H460 lung
NCI-H522 lung = system: NCI-H522 lung
NCI/ADR-RES ovarian = system: NCI/ADR-RES ovarian
OVCAR-3 ovarian = system: OVCAR-3 ovarian
OVCAR-4 ovarian = system: OVCAR-4 ovarian
OVCAR-5 ovarian = system: OVCAR-5 ovarian
OVCAR-8 ovarian = system: OVCAR-8 ovarian
PC-3 prostate = system: PC-3 prostate
RPMI-8226 leukemia = system: RPMI-8226 leukemia
RXF 393 renal = system: RXF 393 renal
SF-268 CNS = system: SF-268 CNS
SF-295 CNS = system: SF-295 CNS
SF-539 CNS = system: SF-539 CNS
SK-MEL-2 melanoma = system: SK-MEL-2 melanoma
SK-MEL-28 melanoma = system: SK-MEL-28 melanoma
SK-MEL-5 melanoma = system: SK-MEL-5 melanoma
SK-OV-3 ovarian = system: SK-OV-3 ovarian
SN12C renal = system: SN12C renal
SNB-19 CNS = system: SNB-19 CNS
SNB-75 CNS = system: SNB-75 CNS
SR leukemia = system: SR leukemia
SW-620 colon = system: SW-620 colon
T-47D breast = system: T-47D breast
TK-10 renal = system: TK-10 renal
U251 CNS = system: U251 CNS
UACC-257 melanoma = system: UACC-257 melanoma
UACC-62 melanoma = system: UACC-62 melanoma
UO-31 renal = system: UO-31 renal
786-0 renal = system: 786-0 renal
CAKI-1 renal = system: CAKI-1 renal
NCI-H226 lung = system: NCI-H226 lung

**Q.** With `O=C1CCc2cc3c(cc21)CC1(Cc2cc4c(cc2C1)CCCC4)C3` as the molecule, how does the TGI (A498 renal) read?
**A.** > 100 µM

**Q.** And the TGI (A549 NSCLC)?
**A.** > 100 µM

**Q.** And the TGI (ACHN renal)?
**A.** > 100 µM

**Q.** And the TGI (BT-549 breast)?
**A.** > 100 µM

**Q.** What about the TGI (CCRF-CEM leukemia) of the same molecule?
**A.** > 100 µM

**Q.** What about the TGI (COLO 205 colon) of the same molecule?
**A.** > 100 µM

**Q.** And the TGI (DU-145 prostate)?
**A.** > 100 µM

**Q.** And the TGI (EKVX NSCLC)?
**A.** > 100 µM

**Q.** And the TGI (HCC-2998 colon)?
**A.** > 100 µM

**Q.** And the TGI (HCT-116 colon)?
**A.** > 100 µM

**Q.** What about the TGI (HCT-15 colon) of the same molecule?
**A.** > 100 µM

**Q.** And the TGI (HL-60(TB) leukemia)?
**A.** > 100 µM

**Q.** And the TGI (HOP-62 NSCLC)?
**A.** > 100 µM

**Q.** And the TGI (HOP-92 NSCLC)?
**A.** 11.4 µM

**Q.** What about the TGI (HS 578T breast) of the same molecule?
**A.** 90.2 µM

**Q.** And the TGI (HT29 colon)?
**A.** > 100 µM

**Q.** What about the TGI (IGROV1 ovarian) of the same molecule?
**A.** > 100 µM

**Q.** What about the TGI (K-562 leukemia) of the same molecule?
**A.** > 100 µM

**Q.** And the TGI (KM12 colon)?
**A.** > 100 µM

**Q.** What about the TGI (LOX IMVI melanoma) of the same molecule?
**A.** > 100 µM

**Q.** And the TGI (M14 melanoma)?
**A.** > 100 µM

**Q.** What about the TGI (MALME-3M melanoma) of the same molecule?
**A.** > 100 µM

**Q.** What about the TGI (MCF7 breast) of the same molecule?
**A.** > 100 µM

**Q.** What about the TGI (MDA-MB-231 breast) of the same molecule?
**A.** > 100 µM

**Q.** What about the TGI (MDA-MB-435) of the same molecule?
**A.** 51 µM

**Q.** And the TGI (MDA-N)?
**A.** 39.4 µM

**Q.** And the TGI (MOLT-4 leukemia)?
**A.** > 100 µM

**Q.** And the TGI (NCI-H23 lung)?
**A.** > 100 µM

**Q.** And the TGI (NCI-H460 lung)?
**A.** > 100 µM

**Q.** And the TGI (NCI-H522 lung)?
**A.** > 100 µM

**Q.** What about the TGI (NCI/ADR-RES ovarian) of the same molecule?
**A.** > 100 µM

**Q.** What about the TGI (OVCAR-3 ovarian) of the same molecule?
**A.** > 100 µM

**Q.** And the TGI (OVCAR-4 ovarian)?
**A.** > 100 µM

**Q.** What about the TGI (OVCAR-5 ovarian) of the same molecule?
**A.** > 100 µM

**Q.** And the TGI (OVCAR-8 ovarian)?
**A.** > 100 µM

**Q.** And the TGI (PC-3 prostate)?
**A.** > 100 µM

**Q.** What about the TGI (RPMI-8226 leukemia) of the same molecule?
**A.** > 100 µM

**Q.** What about the TGI (RXF 393 renal) of the same molecule?
**A.** > 100 µM

**Q.** And the TGI (SF-268 CNS)?
**A.** > 100 µM

**Q.** And the TGI (SF-295 CNS)?
**A.** > 100 µM

**Q.** And the TGI (SF-539 CNS)?
**A.** > 100 µM

**Q.** And the TGI (SK-MEL-2 melanoma)?
**A.** > 100 µM

**Q.** What about the TGI (SK-MEL-28 melanoma) of the same molecule?
**A.** > 100 µM

**Q.** What about the TGI (SK-MEL-5 melanoma) of the same molecule?
**A.** > 100 µM

**Q.** What about the TGI (SK-OV-3 ovarian) of the same molecule?
**A.** > 100 µM

**Q.** What about the TGI (SN12C renal) of the same molecule?
**A.** > 100 µM

**Q.** And the TGI (SNB-19 CNS)?
**A.** > 100 µM

**Q.** And the TGI (SNB-75 CNS)?
**A.** 75.1 µM

**Q.** And the TGI (SR leukemia)?
**A.** 47.7 µM

**Q.** What about the TGI (SW-620 colon) of the same molecule?
**A.** > 100 µM

**Q.** And the TGI (T-47D breast)?
**A.** > 100 µM

**Q.** What about the TGI (TK-10 renal) of the same molecule?
**A.** > 100 µM

**Q.** And the TGI (U251 CNS)?
**A.** > 100 µM

**Q.** What about the TGI (UACC-257 melanoma) of the same molecule?
**A.** > 100 µM

**Q.** What about the TGI (UACC-62 melanoma) of the same molecule?
**A.** > 100 µM

**Q.** What about the TGI (UO-31 renal) of the same molecule?
**A.** > 100 µM

**Q.** What does the source list for `O=C1C(=C(C(=O)c2ccccc2)C(=O)c2ccccc2)OC(c2ccccc2)=C1C(=O)c1ccccc1`?
**A.** TGI (786-0 renal): 20 µM; TGI (A498 renal): 44.2 µM; TGI (A549 NSCLC): 51.6 µM; TGI (ACHN renal): 20.1 µM; TGI (BT-549 breast): 19.9 µM; TGI (CAKI-1 renal): 11.2 µM; TGI (CCRF-CEM leukemia): 10.9 µM; TGI (COLO 205 colon): 25.7 µM; TGI (DU-145 prostate): 48.8 µM; TGI (EKVX NSCLC): 34.8 µM; TGI (HCC-2998 colon): 27.6 µM; TGI (HCT-116 colon): 14.1 µM; TGI (HCT-15 colon): 14.9 µM; TGI (HL-60(TB) leukemia): 30.8 µM; TGI (HOP-62 NSCLC): 15.6 µM; TGI (HOP-92 NSCLC): 31.6 µM; TGI (HS 578T breast): 54.3 µM; TGI (HT29 colon): 26.5 µM; TGI (IGROV1 ovarian): 8.84 µM; TGI (K-562 leukemia): 95 µM; TGI (KM12 colon): 42.3 µM; TGI (LOX IMVI melanoma): 18.5 µM; TGI (M14 melanoma): 31 µM; TGI (MALME-3M melanoma): 39.4 µM; TGI (MCF7 breast): 29.7 µM; TGI (MDA-MB-231 breast): 32.2 µM; TGI (MDA-MB-435): 35.4 µM; TGI (MDA-N): 77.9 µM; TGI (MOLT-4 leukemia): 9.86 µM; TGI (NCI-H226 lung): 16.4 µM; TGI (NCI-H23 lung): 25.8 µM; TGI (NCI-H460 lung): 19.2 µM; TGI (NCI-H522 lung): 19.5 µM; TGI (NCI/ADR-RES ovarian): 24.5 µM; TGI (OVCAR-3 ovarian): 23 µM; TGI (OVCAR-4 ovarian): 9.2 µM; TGI (OVCAR-5 ovarian): 50.4 µM; TGI (OVCAR-8 ovarian): 15.7 µM; TGI (PC-3 prostate): > 100 µM; TGI (RPMI-8226 leukemia): 24.9 µM; TGI (RXF 393 renal): 8.13 µM; TGI (SF-268 CNS): 34.8 µM; TGI (SF-295 CNS): 32.1 µM; TGI (SF-539 CNS): 22.3 µM; TGI (SK-MEL-2 melanoma): 28.3 µM; TGI (SK-MEL-28 melanoma): 59 µM; TGI (SK-MEL-5 melanoma): 25 µM; TGI (SK-OV-3 ovarian): 34.6 µM; TGI (SN12C renal): 19.2 µM; TGI (SNB-19 CNS): > 100 µM; TGI (SR leukemia): 14.2 µM; TGI (T-47D breast): 53.6 µM; TGI (TK-10 renal): 61.4 µM; TGI (U251 CNS): > 100 µM; TGI (UACC-257 melanoma): 55.1 µM; TGI (UACC-62 melanoma): 22.8 µM; TGI (UO-31 renal): 26.7 µM

Source: PubChem BioAssay (NCI)
